Measurements taken from patent publication US5776912A, “Lipophilic oligosaccharide antibiotic compositions” (Schering Corporation, priority 1996, dated 1998).
Where a name gives a salt, the structure may show the parent alone. Read-outs that look alike come from different tables or passages of the source.

What was measured:
S. aureus 85111205 = test: Mouse protection model, PD50 (Table 4), S. aureus 85111205; assay type: in vivo, Staphylococcus aureus (infection in CF1 mice); conditions: Staphylococcus aureus, 85111205, iv, read-out: PD50
Source text: (§1) PD 50 Valves Showing Efficacy of Composition Containing the
(§2) Compound of Formula III Against Bacterial Infections^1 in CF1
(§3) ^1 Injections were by IP route
(§4) ^2 CFI mice are Charles River CFI, ca 20 g while male mice
(§5) ^4 PD50 Dosing routes for drugs: IV for A, B and C; SC for D in
(§6) ^5. Multiple of one LD100 (lethal dose to kill 100% of animals) of
(§7) organism given to mice. (Measure of severity of the infection.)
(§8) See Table 4 for PD50 values for the compositions of the compound of formula III including a preferred composition of the present invention (Drug B) compared to those for vancomycin (Drug C) and amikacin (drug D).

[1] = tested on: E. faecalis 91031103 (Vancomycin resistant); test: Mouse protection model, PD50 (Table 4), vancomycin resistant E. faecalis 91031103; assay type: in vivo, Enterococcus faecalis (infection in CF1 mice); conditions: Enterococcus faecalis, read-out: PD50
Source text: as §1, §2, §3, §4, §5, §6, §7, §8

S. aureus 78100502 = test: Mouse protection model, PD50 (Table 4), S. aureus 78100502; assay type: in vivo, Staphylococcus aureus (infection in CF1 mice); conditions: Staphylococcus aureus, drug IV, 20 × LD, 2.2 × 10^8 CFU/mouse IP
Source text: as §1, §2, §3, §4, §5, §6, §7, §8

E. faecalis 88032810 = test: Mouse protection model, PD50 (Table 4), E. faecalis 88032810; assay type: in vivo, Enterococcus faecalis (infection in CF1 mice); conditions: read-out: PD50
Source text: as §1, §2, §3, §4, §5, §6, §7, §8

[2] = tested on: enterococci resistant to vancomycin; test: microbe, parasite or virus in culture; assay type: cell-based
L. longbeacheae = test: MIC, L. longbeacheae; assay type: cell-based
Enterococcus faecium = test: Agar dilution MIC, Enterococcus faecium; assay type: cell-based; conditions: printed for E. faecalis and E. faecium together
Enterococcus faecalis = test: Agar dilution MIC, Enterococcus faecalis; assay type: cell-based; conditions: printed for E. faecalis and E. faecium together
[3] = tested on: methicillin-resistant staphylococci; assay type: cell-based
bacteria = assay type: cell-based
gram-negative bacteria = test: Agar dilution MIC, gram-negative bacteria; assay type: cell-based
Mycoplasma sp. = test: MIC, Mycoplasma sp.; assay type: cell-based
[4] = tested on: various strains of streptococci; test: Agar dilution MIC, streptococci; assay type: cell-based
Borrelia burgdorferi = test: MIC, Borrelia burgdorferi; assay type: cell-based
[5] = tested on: various clinical and laboratory strains of staphylococci; test: Bactericidal activity, staphylococci; assay type: cell-based
Trichomonas vaginalis = test: MIC, Trichomonas vaginalis; assay type: cell-based
Legionella pneumophila = assay type: cell-based
[6] = tested on: methicillin-susceptible staphylococci; test: Agar dilution MIC, methicillin-susceptible staphylococci; assay type: cell-based
[7] = pH of aqueous solutions formed with bases; assay type: physicochemical
[8] = Formation of aqueous solutions; assay type: physicochemical; conditions: in water
[9] = agar dilution, Mueller-Hinton agar

Work on `CN[C@H](CC(C)C)C(=O)N[C@H]1C(=O)N[C@@H](CC(N)=O)C(=O)N[C@H]2C(=O)N[C@H]3C(=O)N[C@H](C(=O)N[C@H](C(=O)O)c4cc(O)cc(O)c4-c4cc3ccc4O)[C@H](O)c3ccc(c(Cl)c3)Oc3cc2cc(c3O[C@@H]2O[C@H](CO)[C@@H](O)[C@H](O)[C@H]2O[C@H]2C[C@](C)(N)[C@H](O)[C@H](C)O2)Oc2ccc(cc2Cl)[C@H]1O` [Drug C, Vancomycin HCl] yielded an ED50 (S. aureus 85111205) of 26 mg/kg, an ED50 ([1]; iv) of 100 mg/kg and an ED50 (S. aureus 78100502) of 6 mg/kg. The ED50 (E. faecalis 88032810; Enterococcus faecalis, 88032810, iv) was 10 mg/kg and the MIC ([2]; read-out: MICs) was > 128 µg/mL.

Work on `NCC[C@H](O)C(=O)N[C@@H]1C[C@H](N)[C@@H](O[C@H]2O[C@H](CN)[C@@H](O)[C@H](O)[C@H]2O)[C@H](O)[C@H]1O[C@H]1O[C@H](CO)[C@@H](O)[C@H](N)[C@H]1O` [Drug D, Amikacin] yielded an ED50 ([1]; drug SC, 1.7 × LD, 1.5 × 10^9 CFU/mouse IP) of 49 mg/kg and an ED50 (E. faecalis 88032810; Enterococcus faecalis, 88032810, drug SC, 10 × LD, 9.7 × 10^8 CFU/mouse IP) of 115 mg/kg.

With “56-deacetyl-57-demethyl-45-O-de(2-methyl-1 -oxopropyl)-12-O-(2,3,6-trideoxy-3-C-methyl-4-O-methyl-3-nitro-α-L-arabino-hexopyransoyl)-flambamycin 56-(2,4-dihydroxy-6-methylbenzoate) [compound of Formula III]” the MICs (L. longbeacheae) was 2.5 µg/mL, the “GMM (geometric mean MIC)” value (Enterococcus faecium) was 0.49 µg/mL and the “GMM (geometric mean MIC)” value (Enterococcus faecalis) was 0.49 µg/mL. The “GMM (geometric mean MIC)” value [3, 9] was 0.1 µg/mL, the “potency relative to vancomycin” value ([3]; more potent than vancomycin) was 2 fold and the “cross resistance with other antibiotics” value (bacteria) was “No cross resistance with other antibiotics was observed”. For the same compound, the “GMM (geometric mean MIC)” value (gram-negative bacteria) was > 760 µg/mL, the MICs (Mycoplasma sp.) was 200 µg/mL and the MICs [4] was < 0.5 µg/mL. For the same compound, the MICs (Borrelia burgdorferi) was < 0.49 µg/mL, the bactericidal activity [5] was “moderate bactericidal activity” and the MICs (Trichomonas vaginalis) was > 192 µg/mL. The MICs (Legionella pneumophila) was 2.5 µg/mL, the “activity (in words)” value ([2]; enterococci resistant to vancomycin) was “good activity” and the “GMM (geometric mean MIC)” value [6, 9] was 0.5 µg/mL. The “potency relative to vancomycin” value ([6]; more potent than vancomycin) was 2 fold.

For `NCCCC[C@H](N)C(=O)O` [Lysine], the “pH of aqueous solution” value [7] was “less than 9.3”.

In the case of `[Ca+2].[OH-].[OH-]` [calcium hydroxide], the “formation of aqueous solution” value [8] is reported as “did not form aqueous solutions”.

With `[Ba+2].[OH-].[OH-]` [barium hydroxide] the “formation of aqueous solution” value [8] was “did not form aqueous solutions”.
